According to ChEMBL document CHEMBL5113486, “Hit-to-lead optimization of novel phenyl imidazole carboxamides that are active against Leishmania donovani” (Eur J Med Chem, 2022):
Converted amounts (≈) assume the structure as drawn.

Tests used:
[1] = Kinetic solubility of the compound at pH 2.0 by nephelometry; assay type: physicochemical; details: buffer, read-out: Kinetic_solubility
[2] = Metabolic stability in human liver microsomes assessed as half-life; assay type: ADME, Microsome
[3] = Cytotoxicity against human THP-1 cells assessed as cell growth inhibition; assay type: toxicity, cell-based
[4] = Lipophilicity, log P of the compound; assay type: physicochemical; details: octanol/water
[5] = Metabolic stability in mouse liver microsomes assessed as half life; assay type: ADME, Microsome
[6] = Selectivity index, ratio of CC50 for cytotoxicity against human THP-1 cells to IC50 for antileishmanial activity against Leishmania donovani infected in human THP-1 cells; assay type: toxicity, cell-based; details: read-out: Ratio CC50/IC50
[7] = Kinetic solubility of the compound at pH 6.5 by nephelometry; assay type: physicochemical; details: buffer, read-out: Kinetic_solubility
[8] = Metabolic stability in human liver microsomes assessed as intrinsic clearance measured per mg protein; assay type: ADME, Microsome; details: read-out: CLH
[9] = Cytotoxicity against human HepG2 cells assessed as cell growth inhibition; assay type: toxicity, cell-based
[10] = Cytotoxicity against human HepG2 cells assessed as cell growth inhibition at 100 uM; assay type: toxicity, cell-based; details: read-out: Activity
[11] = Metabolic stability in mouse liver microsomes assessed as intrinsic clearance measured per mg protein; assay type: ADME, Microsome; details: read-out: CLH
Leishmania donovani [12] = assay: Antileishmanial activity against Leishmania donovani axenic amastigotes assessed as growth inhibition by fluorescence intensity readout assay; assay type: functional, organism-based
Leishmania donovani [13] = assay: Antileishmanial activity against Leishmania donovani infected in human THP-1 cells assessed as growth inhibition by intramacrophage assay; assay type: functional, organism-based
Leishmania donovani [14] = assay: Antileishmanial activity against Leishmania donovani infected in human THP-1 cells assessed as growth inhibition at 100 uM by intramacrophage assay; assay type: functional; parameters: scale not given: the % may be the effect or the level left
[15] = Solubility of the compound in DMSO; assay type: physicochemical
HepG2 [16] = assay: Mitotoxicity in human HepG2 cells assessed as reduction in metabolic activity under galactose containing medium by crabtree effect assay; assay type: toxicity, cell-based
[17] = (§1) Cytotoxicity against human HepG2 cells assessed as inhibition of cell growth under glucose containing medium by crabtree effect assay; assay type: toxicity, cell-based; details: HepG2 cells
HepG2 [18] = assay: Cytotoxicity against human HepG2 cells assessed as inhibition of cell growth under galactose containing medium by crabtree effect assay; assay type: toxicity, cell-based
HepG2 [19] = assay: Mitotoxicity in human HepG2 cells assessed as reduction in metabolic activity under glucose containing medium by crabtree effect assay; assay type: toxicity, cell-based
[20] = Drug degradation in human liver microsomes; assay type: ADME, Microsome; details: read-out: Drug degradation
[21] = Metabolic stability in mouse liver microsomes assessed as half life measured at 2 to 5 mins; assay type: ADME, Microsome; details: time 2-5 min
[22] = Metabolic stability in mouse liver microsomes assessed as intrinsic clearance measured per mg protein at 2 to 5 mins; assay type: ADME, Microsome; details: time 2-5 min, read-out: CLH
[23] = Solubility of the compound upto 800 uM; assay type: physicochemical
[24] = Stability in mouse liver microsomes assessed as parent compound remaining measured at 2 mins; assay type: ADME, Microsome
HepG2 [25] = assay: as §1; assay type: toxicity, cell-based; details: hepg2

SMILES	CC50 [3] [µM]	selectivity ratio [6]	inhibition at 100 µM [10] [%]	IC50 (Leishmania donovani [13]) [µM]	Activity (Leishmania donovani [14]) [%]	further results
COc1ccc(-c2cnc(NC(=O)c3ccc(F)cc3)n2C)cc1	≥ 50	> 8.3	< 50	–	–	solubility kinetic [1]: 12.5 µg/mL (≈ 38.4 µM); half-life [2]: 59 min; logP [4]: 3.6; half-life [5]: 4 min; solubility kinetic [7]: < 1.6 µg/mL; microsomal CLint [8]: 30 µL/min/mg; CC50 [9]: 100 µM; microsomal CLint [11]: 396 µL/min/mg; IC50 (Leishmania donovani [12]): 3.2 µM
COc1ccc(-c2cnc(NC(=O)c3cc(-c4ccccn4)n[nH]3)n2C)cc1	≥ 50	> 19	< 50	–	–	logP [4]: 3.2; CC50 [9]: 100 µM; IC50 (Leishmania donovani [12]): 4 µM
COc1ccc(-c2cnc(NC(=O)C3CCNCC3)n2C)cc1	> 100	> 1	< 50	> 100	<50	–
COc1ccc(-c2cnc(NC(=O)C3CCCCC3)n2C)cc1	> 100	> 1	< 50	> 100	<50	solubility [15]: Insoluble
COc1ccc2c(c1)nc(NC(=O)c1ccc(F)cc1)n2C	> 100	> 2.6	< 50	38	–	–
COc1ccc(-c2cnc(NC(=O)c3cccc(F)c3)n2C)cc1	> 100	–	< 50	> 100	<50	–
Cn1c(-c2ccccc2)cnc1NC(=O)C1CCCCC1	> 100	> 2.2	< 50	46	–	–
Cn1c(-c2cccc(Cl)c2)cnc1NC(=O)c1ncc[nH]1	55	74	–	0.74	–	solubility kinetic [1]: 12.5 µg/mL (≈ 41.4 µM); half-life [2]: 229 min; Activity (HepG2 [16]): Non-Toxic; half-life [5]: 82 min; CC50 [17]: 17 µM; Activity (HepG2 [18]): Non-Toxic; solubility kinetic [7]: 3.1 µg/mL (≈ 10.3 µM); Activity (HepG2 [19]): Non-Toxic; microsomal CLint [8]: 8 µL/min/mg; metabolised [20]: < 15%; microsomal CLint [11]: 21 µL/min/mg
Cc1cccc(-c2cnc(NC(=O)c3ccc(F)cc3)n2C)c1	> 100	> 1.3	< 50	79	–	–
COc1ccc(-c2cnc(NC(=O)c3ccn[nH]3)n2C)cc1	> 100	> 1	< 50	> 100	<50	–
CCn1c(-c2ccc(OC)cc2)cnc1NC(=O)c1ccc(F)cc1	> 100	> 2.6	< 50	> 100	–	–
COc1ccc(-c2cnc(NC(=O)c3ccccc3)n2C)cc1	> 100	> 3.6	< 50	28	–	solubility [15]: Insoluble
Cc1ccccc1C(=O)Nc1ncc(-c2ccccc2)n1C	> 100	> 1.8	< 50	57	–	–
O=C(Nc1ncc(-c2ccccc2)o1)c1ccc(F)cc1	17	15	–	1.1	–	half-life [21]: 5 min; solubility kinetic [1]: 25 µg/mL (≈ 88.6 µM); half-life [2]: 19 min; solubility kinetic [7]: 6.3 µg/mL (≈ 22.3 µM); microsomal CLint [8]: 90 µL/min/mg; microsomal CLint [22]: 352 µL/min/mg
COc1ccc(-c2cnc3nc(-c4ccc(F)cc4)[nH]c3c2)cc1	> 100	> 1	< 50	> 100	<50	solubility [23]: Insoluble
COc1ccc(-c2cnc(NC(=O)c3ccc([N+](=O)[O-])cc3)n2C)cc1	> 100	> 1	< 50	> 100	<50	–
Cn1c(-c2ccccc2)cnc1NC(=O)c1ncc[nH]1	> 100	> 16	< 50	6.4	–	half-life [2]: 88 min; half-life [5]: < 2 min; microsomal CLint [8]: 20 µL/min/mg; Stability [24]: Unstable; microsomal CLint [11]: > 866 µL/min/mg
COc1ccc(-c2cnc(NC(=O)c3ccc(F)cc3)n2Cc2ccccc2)cc1	> 100	1.4	< 50	> 100	–	–
COc1ccc2nc(NC(=O)c3ccc(F)cc3)n(C)c2c1	> 100	> 2.3	< 50	44	–	–
Cn1c(-c2ccccc2F)cnc1NC(=O)c1ccc(F)cc1	> 100	> 1	< 50	> 100	<50	–

SMILES	CC50 [3] [µM]	selectivity ratio [6]	inhibition at 100 µM [10] [%]	IC50 (Leishmania donovani [13]) [µM]	Activity (Leishmania donovani [14]) [%]	further results
COc1ccc(-c2cnc(NC(=O)c3ccc(F)cc3)n2C2CCCC2)cc1	> 100	> 1	< 50	35	–	–
COc1ccc(-c2cnc(NC(=O)c3ccc(C#N)cc3)n2C)cc1	> 100	> 1	< 50	> 100	<50	–
COc1ccc(-c2cnc(NC(=O)c3ccc(F)cc3)[nH]2)cc1	> 100	> 8.3	< 50	38	–	–
Cn1c(-c2ccccc2)cnc1NC(=O)c1ccc(F)cc1	> 100	> 2.8	< 50	36	–	solubility kinetic [1]: 25 µg/mL (≈ 84.7 µM); solubility kinetic [7]: 25 µg/mL (≈ 84.7 µM)
Cn1c(-c2ccc(F)cc2)cnc1NC(=O)c1ccc(F)cc1	> 100	> 1	< 50	> 100	<50	–
COc1ccc(-c2nc3ncc(-c4ccc(F)cc4)cc3[nH]2)cc1	> 100	> 1	< 50	> 100	<50	solubility [23]: Insoluble
Cn1c(-c2ccc(Cl)cc2)cnc1NC(=O)c1ncc[nH]1	52	100	–	0.52	–	solubility kinetic [1]: 50 µg/mL (≈ 166 µM); half-life [2]: > 255 min; Activity (HepG2 [16]): Non-Toxic; half-life [5]: 43 min; Activity (HepG2 [25]): Non-Toxic; Activity (HepG2 [18]): Non-Toxic; solubility kinetic [7]: 25 µg/mL (≈ 82.9 µM); Activity (HepG2 [19]): Non-Toxic; microsomal CLint [8]: < 7 µL/min/mg; metabolised [20]: < 15%; microsomal CLint [11]: 41 µL/min/mg
COc1ccc(-c2cnc(NC(=O)c3ncc[nH]3)n2C)cc1	> 100	> 9.1	< 50	11	<50	solubility kinetic [1]: > 100 µg/mL; half-life [2]: > 255 min; half-life [5]: 3 min; solubility kinetic [7]: 6.3 µg/mL (≈ 21.2 µM); microsomal CLint [8]: < 7 µL/min/mg; metabolised [20]: < 15%; microsomal CLint [11]: 511 µL/min/mg
COc1ccc(-c2cnc(NC(=O)c3cccc(C#N)c3)n2C)cc1	> 100	> 1	< 50	> 100	<50	–
COc1ccc(-c2cnc(NC(=O)c3ccccc3O)n2C)cc1	> 100	> 1	< 50	> 100	–	–
COc1ccc(-c2cnc(NC(=O)c3cccc(C)c3)n2C)cc1	> 100	> 1	< 50	> 100	–	solubility [15]: Insoluble
COc1ccc(-c2cnc(NC(C)=O)n2C)cc1	> 100	> 1	< 50	> 100	<50	–
CCCCn1c(-c2ccc(OC)cc2)cnc1NC(=O)c1ccc(F)cc1	> 100	> 5.6	< 50	> 100	<50	–
COc1cccc(-c2cnc(NC(=O)c3ncc[nH]3)n2C)c1	> 100	> 12	< 50	8.1	–	–
COc1ccc(-c2noc(NC(=O)c3ccc(F)cc3)c2C)cc1	> 100	> 1	< 50	> 100	<50	–
COc1ccc(-c2ccc(NC(=O)c3ccc(F)cc3)nc2)cc1	> 100	> 1	< 50	> 100	<50	solubility [15]: Insoluble
CCCC(=O)Nc1ncc(-c2ccc(OC)cc2)n1C	> 100	> 1	< 50	> 100	<50	–
COc1ccc(-c2cnc(NC(=O)c3cnco3)n2C)cc1	> 100	> 1	< 50	> 100	<50	–
COc1ccc(-c2cnc(NC(=O)c3ccccc3F)n2C)cc1	> 100	> 1	< 50	> 100	<50	–
COc1ccc(-c2cnc(NC(=O)c3cnc[nH]3)n2C)cc1	> 100	> 1	< 50	> 100	<50	–
